Reference: patent US20260140098A1, “METHOD FOR TREATING PLASMA SAMPLE CONTAINING (7aS,2'S)-2-OXO-CLOPIDOGREL AND METHOD FOR DETERMINING THE SAME” (CHENGDU SHIBEIKANG BIOMEDICAL TECHNOLOGY CO., LTD., priority 2021, published 2026)

Assay: Stability of (7aS,2′S)-2-oxo-clopidogrel in plasma, screening of TCEP dosage (Example 4)
Format: in vitro ADME
Procedure: S2. Plasma sample pre-treatment: taking 100 μl of the plasma, adding 5 μl of an internal standard working solution and 300 μl of acetonitrile respectively; after vortex mixing, centrifuging at 2-8° C. and 10,000 r/min for 10 min, and collecting the supernatant for later use.
S3. LC-MS/MS analysis: injecting 10 μl of the supernatant prepared from step S2 for determination, where the liquid chromatography conditions are: • the chromatographic column is Kinetex® 1.7 μm C18 100 A 100×2.1 mm; the column temperature is 40° C.; the mobile phase is acetonitrile-0.2% aqueous formic acid solution with a flow rate of 0.2 ml/min; and a gradient elution is carried out as specified in the table below:
ESI ion source, positive ion detection in multiple reaction monitoring mode (MRM); the quantitatively analyzed ions (7aS,2′S)-2-oxo-clopidogrel: m/z 338.100→155.000, IS: m/z 341.100→158.000, a capillary voltage of 4.0 KV, a cone voltage of 25 V, a desolvation gas temperature of 400° C. and a source temperature of 150° C. The optimal collision energy is 20 eV.
Blank plasma was taken and TCEP was added to prepare plasma containing TCEP at different concentrations (10, 50, 100 mg/ml). Subsequently, standard series solution of (7aS,2′S)-2-oxo-clopidogrel was added separately to prepare quality control samples with two concentrations of (7aS,2′S)-2-oxo-clopidogrel (0.1 and 12.0 ng/ml), 3 samples for each concentration. They were placed at room temperature and on ice, respectively, and the plasma samples at different placing time points were taken to examine the stability by pre-treating the plasma samples according to the method of S2 of Example 1, followed by LC/MS/MS determination according to the method of S3.

Question: For `COC(=O)[C@H](c1ccccc1Cl)N1CC[C@@H]2SC(=O)C=C2C1` [(7aS,2′S)-2-oxo-clopidogrel, methyl(S)-2-(2-chlorophenyl)-2-((S)-2-oxo-2,6,7,7a-tetrahydrothieno[3,2-c]pyridin-5 (4H)-yl)acetate], which Measured concentration (No TCEP, theoretical 0.1 ng/mL, on ice, 0 min) is on record?
Answer: Its Measured concentration is 0.0965 ng/mL.

Question: What about the Measured concentration (No TCEP, theoretical 0.1 ng/mL, on ice, 30 min) of the same compound?
Answer: The Measured concentration was 0.0842 ng/mL.

Question: And the Measured concentration (No TCEP, theoretical 0.1 ng/mL, on ice, 60 min)?
Answer: The Measured concentration was 0.0763 ng/mL.

Question: And the Measured concentration (No TCEP, theoretical 0.1 ng/mL, on ice, 120 min)?
Answer: Its Measured concentration is 0.0622 ng/mL.

Question: And the Measured concentration (No TCEP, theoretical 0.1 ng/mL, room temperature, 0 min)?
Answer: The Measured concentration was 0.0965 ng/mL.

Question: What about the Measured concentration (No TCEP, theoretical 0.1 ng/mL, room temperature, 30 min) of the same compound?
Answer: Its Measured concentration is 0.0782 ng/mL.

Question: And the Measured concentration (No TCEP, theoretical 0.1 ng/mL, room temperature, 60 min)?
Answer: The Measured concentration was 0.0633 ng/mL.

Question: And the Measured concentration (No TCEP, theoretical 0.1 ng/mL, room temperature, 120 min)?
Answer: The Measured concentration was 0.0529 ng/mL.

Question: And the Measured concentration (No TCEP, theoretical 12.0 ng/mL, on ice, 0 min)?
Answer: Its Measured concentration is 12.3 ng/mL.

Question: And the Measured concentration (No TCEP, theoretical 12.0 ng/mL, on ice, 30 min)?
Answer: The Measured concentration was 10.3 ng/mL.

Question: And the Measured concentration (No TCEP, theoretical 12.0 ng/mL, on ice, 60 min)?
Answer: Its Measured concentration is 9.65 ng/mL.

Question: And the Measured concentration (No TCEP, theoretical 12.0 ng/mL, on ice, 120 min)?
Answer: The Measured concentration was 7.23 ng/mL.

Question: What about the Measured concentration (No TCEP, theoretical 12.0 ng/mL, room temperature, 0 min) of the same compound?
Answer: Its Measured concentration is 12.3 ng/mL.

Question: What about the Measured concentration (No TCEP, theoretical 12.0 ng/mL, room temperature, 30 min) of the same compound?
Answer: Its Measured concentration is 9.45 ng/mL.

Question: What about the Measured concentration (No TCEP, theoretical 12.0 ng/mL, room temperature, 60 min) of the same compound?
Answer: The Measured concentration was 8.38 ng/mL.

Question: What about the Measured concentration (No TCEP, theoretical 12.0 ng/mL, room temperature, 120 min) of the same compound?
Answer: Its Measured concentration is 6.57 ng/mL.

Question: What about the Measured concentration (TCEP 10 mg/ml, theoretical 0.1 ng/mL, on ice, 0 min) of the same compound?
Answer: Its Measured concentration is 0.0965 ng/mL.

Question: And the Measured concentration (TCEP 10 mg/ml, theoretical 0.1 ng/mL, on ice, 30 min)?
Answer: The Measured concentration was 0.0942 ng/mL.

Question: What about the Measured concentration (TCEP 10 mg/ml, theoretical 0.1 ng/mL, on ice, 60 min) of the same compound?
Answer: Its Measured concentration is 0.0863 ng/mL.

Question: And the Measured concentration (TCEP 10 mg/ml, theoretical 0.1 ng/mL, on ice, 120 min)?
Answer: Its Measured concentration is 0.0782 ng/mL.

Question: What about the Measured concentration (TCEP 10 mg/ml, theoretical 0.1 ng/mL, room temperature, 0 min) of the same compound?
Answer: Its Measured concentration is 0.0965 ng/mL.

Question: And the Measured concentration (TCEP 10 mg/ml, theoretical 0.1 ng/mL, room temperature, 30 min)?
Answer: Its Measured concentration is 0.0952 ng/mL.

Question: And the Measured concentration (TCEP 10 mg/ml, theoretical 0.1 ng/mL, room temperature, 60 min)?
Answer: The Measured concentration was 0.0833 ng/mL.

Question: What about the Measured concentration (TCEP 10 mg/ml, theoretical 0.1 ng/mL, room temperature, 120 min) of the same compound?
Answer: Its Measured concentration is 0.0729 ng/mL.

Question: And the Measured concentration (TCEP 10 mg/ml, theoretical 12.0 ng/mL, on ice, 0 min)?
Answer: The Measured concentration was 12.3 ng/mL.

Question: And the Measured concentration (TCEP 10 mg/ml, theoretical 12.0 ng/mL, on ice, 30 min)?
Answer: The Measured concentration was 11.9 ng/mL.

Question: What about the Measured concentration (TCEP 10 mg/ml, theoretical 12.0 ng/mL, on ice, 60 min) of the same compound?
Answer: Its Measured concentration is 10.65 ng/mL.

Question: What about the Measured concentration (TCEP 10 mg/ml, theoretical 12.0 ng/mL, on ice, 120 min) of the same compound?
Answer: Its Measured concentration is 9.92 ng/mL.

Question: What about the Measured concentration (TCEP 10 mg/ml, theoretical 12.0 ng/mL, room temperature, 0 min) of the same compound?
Answer: The Measured concentration was 12.3 ng/mL.

Question: And the Measured concentration (TCEP 10 mg/ml, theoretical 12.0 ng/mL, room temperature, 30 min)?
Answer: Its Measured concentration is 11.7 ng/mL.

Question: And the Measured concentration (TCEP 10 mg/ml, theoretical 12.0 ng/mL, room temperature, 60 min)?
Answer: The Measured concentration was 10.4 ng/mL.

Question: What about the Measured concentration (TCEP 10 mg/ml, theoretical 12.0 ng/mL, room temperature, 120 min) of the same compound?
Answer: Its Measured concentration is 9.45 ng/mL.

Question: What about the Measured concentration (TCEP 50 mg/ml, theoretical 0.1 ng/mL, on ice, 0 min) of the same compound?
Answer: The Measured concentration was 0.0965 ng/mL.

Question: And the Measured concentration (TCEP 50 mg/ml, theoretical 0.1 ng/mL, on ice, 30 min)?
Answer: The Measured concentration was 0.0956 ng/mL.

Question: And the Measured concentration (TCEP 50 mg/ml, theoretical 0.1 ng/mL, on ice, 60 min)?
Answer: The Measured concentration was 0.0932 ng/mL.

Question: And the Measured concentration (TCEP 50 mg/ml, theoretical 0.1 ng/mL, on ice, 120 min)?
Answer: The Measured concentration was 0.0911 ng/mL.

Question: What about the Measured concentration (TCEP 50 mg/ml, theoretical 0.1 ng/mL, room temperature, 0 min) of the same compound?
Answer: The Measured concentration was 0.0965 ng/mL.

Question: What about the Measured concentration (TCEP 50 mg/ml, theoretical 0.1 ng/mL, room temperature, 30 min) of the same compound?
Answer: The Measured concentration was 0.0935 ng/mL.

Question: And the Measured concentration (TCEP 50 mg/ml, theoretical 0.1 ng/mL, room temperature, 60 min)?
Answer: Its Measured concentration is 0.0914 ng/mL.

Question: What about the Measured concentration (TCEP 50 mg/ml, theoretical 0.1 ng/mL, room temperature, 120 min) of the same compound?
Answer: The Measured concentration was 0.0895 ng/mL.

Question: What about the Measured concentration (TCEP 50 mg/ml, theoretical 12.0 ng/mL, on ice, 0 min) of the same compound?
Answer: Its Measured concentration is 12.3 ng/mL.

Question: What about the Measured concentration (TCEP 50 mg/ml, theoretical 12.0 ng/mL, on ice, 30 min) of the same compound?
Answer: The Measured concentration was 12.2 ng/mL.

Question: What about the Measured concentration (TCEP 50 mg/ml, theoretical 12.0 ng/mL, on ice, 60 min) of the same compound?
Answer: The Measured concentration was 11.9 ng/mL.

Question: And the Measured concentration (TCEP 50 mg/ml, theoretical 12.0 ng/mL, on ice, 120 min)?
Answer: Its Measured concentration is 11.4 ng/mL.

Question: What about the Measured concentration (TCEP 50 mg/ml, theoretical 12.0 ng/mL, room temperature, 0 min) of the same compound?
Answer: Its Measured concentration is 12.3 ng/mL.

Question: And the Measured concentration (TCEP 50 mg/ml, theoretical 12.0 ng/mL, room temperature, 30 min)?
Answer: The Measured concentration was 12.1 ng/mL.

Question: And the Measured concentration (TCEP 50 mg/ml, theoretical 12.0 ng/mL, room temperature, 60 min)?
Answer: The Measured concentration was 11.9 ng/mL.

Question: And the Measured concentration (TCEP 50 mg/ml, theoretical 12.0 ng/mL, room temperature, 120 min)?
Answer: The Measured concentration was 10.6 ng/mL.

Question: What about the Measured concentration (TCEP 100 mg/ml, theoretical 0.1 ng/mL, on ice, 0 min) of the same compound?
Answer: Its Measured concentration is 0.0965 ng/mL.

Question: What about the Measured concentration (TCEP 100 mg/ml, theoretical 0.1 ng/mL, on ice, 30 min) of the same compound?
Answer: The Measured concentration was 0.0958 ng/mL.

Question: What about the Measured concentration (TCEP 100 mg/ml, theoretical 0.1 ng/mL, on ice, 60 min) of the same compound?
Answer: The Measured concentration was 0.0942 ng/mL.

Question: What about the Measured concentration (TCEP 100 mg/ml, theoretical 0.1 ng/mL, on ice, 120 min) of the same compound?
Answer: Its Measured concentration is 0.0951 ng/mL.

Question: And the Measured concentration (TCEP 100 mg/ml, theoretical 0.1 ng/mL, room temperature, 0 min)?
Answer: Its Measured concentration is 0.0965 ng/mL.

Question: What about the Measured concentration (TCEP 100 mg/ml, theoretical 0.1 ng/mL, room temperature, 30 min) of the same compound?
Answer: Its Measured concentration is 0.0955 ng/mL.

Question: And the Measured concentration (TCEP 100 mg/ml, theoretical 0.1 ng/mL, room temperature, 60 min)?
Answer: The Measured concentration was 0.0934 ng/mL.

Question: And the Measured concentration (TCEP 100 mg/ml, theoretical 0.1 ng/mL, room temperature, 120 min)?
Answer: The Measured concentration was 0.0915 ng/mL.

Question: What about the Measured concentration (TCEP 100 mg/ml, theoretical 12.0 ng/mL, on ice, 0 min) of the same compound?
Answer: Its Measured concentration is 12.3 ng/mL.

Question: What about the Measured concentration (TCEP 100 mg/ml, theoretical 12.0 ng/mL, on ice, 30 min) of the same compound?
Answer: The Measured concentration was 12.4 ng/mL.

Question: What about the Measured concentration (TCEP 100 mg/ml, theoretical 12.0 ng/mL, on ice, 60 min) of the same compound?
Answer: Its Measured concentration is 12.1 ng/mL.

Question: What about the Measured concentration (TCEP 100 mg/ml, theoretical 12.0 ng/mL, on ice, 120 min) of the same compound?
Answer: The Measured concentration was 11.8 ng/mL.

Question: What about the Measured concentration (TCEP 100 mg/ml, theoretical 12.0 ng/mL, room temperature, 0 min) of the same compound?
Answer: The Measured concentration was 12.3 ng/mL.

Question: What about the Measured concentration (TCEP 100 mg/ml, theoretical 12.0 ng/mL, room temperature, 30 min) of the same compound?
Answer: The Measured concentration was 12.2 ng/mL.

Question: And the Measured concentration (TCEP 100 mg/ml, theoretical 12.0 ng/mL, room temperature, 60 min)?
Answer: The Measured concentration was 11.9 ng/mL.

Question: And the Measured concentration (TCEP 100 mg/ml, theoretical 12.0 ng/mL, room temperature, 120 min)?
Answer: Its Measured concentration is 11.6 ng/mL.

Question: And the “Stability in plasma (in words)” value (TCEP added at a concentration of 50 mg/ml or more)?
Answer: Its value is “good stability”.
